Test results taken from patent US20150329483A1, “Methods and Pharmaceutical Compositions for the Treatment of X-Linked Charcot-Marie-Tooth” (INSERM (Institut National de la Santé et de la Recherche …, priority 2012, published 2015).

Key:
S3 cells = experiment: Connexon activity of S3 cells treated with KN62 and KN93 derivatives; format: cell-based, mouse; conditions: for Connexon activity at 0.1 μM / Connexon activity at 1 μM / Connexon activity at 10 μM / Connexon activity at 50 μM: 24 hours of treatment
Description: Animal cells and wild-type mouse cells transgenic animals S3 created in the as described in EXAMPLE 13 are cultured in 96-well microplates. We have shown that the S3 cells have an abnormality of the connexon activity due to the mutation of connexin 32 introduced in this line. […] The cells were incubated with new molecules and connexon activity was evaluated. […] Regarding KN93 derivatives most substitutions suppress the activity “correction activity connexon” molecules, excepting for a few molecules.
S3 cells were treated with various molecules, at increasing concentrations. Moreover transgenic animals of the same lineage cells and untreated transgenic animals are used as controls. The connexon activity was assessed after 24 hours of treatment. The activity is expressed in thousands of arbitrary fluorescence units. […] As a comparison we use the reference molecule KN 93 at a concentration of 10 μM.

S3 fibroblasts [1] = experiment: Centrosome number per cell (γ-tubulin labelling); format: cell-based, mouse; conditions: for >centro (percentage of cells with more than two centrosomes) / 2 centro (percentage of cells with two centrosomes) / 1 centro (percentage of cells with one centrosome): S3 fibroblasts cultured with inhibitor; for >centro (percentage of cells with more than two centrosomes): WT 3, untreated S3 18; for 2 centro (percentage of cells with two centrosomes): WT 18, untreated S3 22; for 1 centro (percentage of cells with one centrosome): WT 79%, untreated S3 60%; for Effect on centrosome number per cell, in words: S3 fibroblasts treated with inhibitor
Description: (§1) For the isolation of fibroblasts a small fragment of mouse ear was removed, dipped in alcohol solution, cut into small pieces in a sterile Petri dish in the presence of PBS containing fungicide (fonigizon) diluted 1/250, and transferred to 2-ml tubes containing 1 ml dissociation buffer (DMEM plus 20% FBS, 1 mg/ml BSA, 0.5 mg/ml collagenase, 0.25 mg/ml trypsin and penicillin/streptomycin). The tubes were incubated in a water bath with agitation for 1 h at 37° C. Fibroblast medium (DMEM, 10% FBS, 2 mM Gln, 100 U/ml penicillin, 100 μg/ml streptomycin) was added to each tube and the samples were centrifuged at 400 g for 10 min. The cells were re-suspended in fibroblast medium, seeded into Petri dishes and placed in an incubator at 37° C., 5% CO2. The culture medium was replaced every two days. When the cultures reached sub-confluence, the cells were trypsinized and expanded into tissue culture flasks. All experiments were performed using cells between passage numbers four and eight.
Cells were grown on glass coverslips for 24 h to allow cultures to reach 80% confluence. To measure the number of centrosomes, cells were fixed with 4% PFA, permeabilized with methanol at −20° C. for 8 min and blocked with 0.5% Triton X-100 in PBS for 30 min at RT. To detect g-tubulin, cells were incubated overnight at 4° C. with a mouse anti-g-tubulin antibody (GTU-88; Sigma) diluted 1/1000 in PBS containing 0.1% milk and 0.05% Triton X-100. After washing, the cells were incubated for 1 h at RT with Cy3-conjugated goat antimouse IgG secondary antibody (Caltag Laboratories) diluted 1/2000 in PBS containing 0.1% milk and 0.05% Triton X-100. The preparations were counterstained with DAPI in Vectashield mounting medium (Vector Laboratories). Fluorescent images were acquired with a microscope (Leica DMR) equipped with a PL APO objective.
Number of centrosomes per cell. Fibroblasts from WT and S3 have been cultured with or without CamKII inhibitors. Centrosome number per cell has been evaluated as described in methods. […] This experiment has been repeated three time.

CamKII = conditions: cited from earlier work
S3 fibroblasts [2] = experiment: Nuclear volume evaluation (DAPI, ImageJ) in cultured fibroblasts; format: cell-based, mouse; conditions: for Nuclear Volume: S3 fibroblasts cultured 24 hrs with CamKII inhibitor, WT 8607, untreated S3 15029; for Effect on nuclear (cellular) volume, in words: S3 fibroblasts treated with inhibitor
Description: as §1
Nuclei were stained with DAPI and nuclear volume was evaluated with ImageJ software.
Nuclear volume correction. Fibroblasts from Wild type (WT) and S3 transgenic mouse have been cultured for 24 hrs with or without CamKII inhibitors (KN62 and KN93). Nuclear volume has been evaluated using the Imagej software. […] This experiment has been repeated three time.

S3 fibroblasts [3] = experiment: Connexon activity, lucifer yellow uptake, 96 well plate; format: cell-based, mouse
Description: FIG. 3. A. Connexon activity in fibroblasts from WT, S3 and S3 treated with KN93 was monitored in a 96 well plate assay, using lucifer yellow as a fluorescent dye (see methods). Fluorescence is in arbitrary units. B, C and D. Connexon activity of WT mouse fibroblasts (B), S3 transgenic mouse (C) and S3 incubated with KN93 (D), were incubated with LY for two hours and examined under a fluorescent microscope.
One hundred thousand cells were cultured as described above for one day with or without CamKII inhibitors (KN62 or KN93 at a final concentration of 10 μM). Lucifer yellow (LY) was added to the medium (final concentration: 110 mM) and incubated for two hours. Fluorescence was recorded using a Perkin Elmer Victor 4 microplaque reader (excitation: 405 nm, emission: 535 nm).
Fibroblasts from WT and S3 (treated or not with KN93) have been cultured for 2 days in 96 wells microplaques. Lucifer yellow has been then added to the medium and fluorescence monitored after 2 hours (cell auto fluorescence and fluorescence of LY without cells, have been evaluated and substracted). This experiment has been repeated three time.

[4] = test system: G2 transgenic line (mutated human Cx32 G12S); experiment: Rotarod locomotor test, G2 transgenic line; format: in vivo, mouse
Description: FIG. 4. Mice from the G2 line were treated either with a placebo (4 animals) or with soluble KN93 (4 animals, 1.5 mg/kg, i.p., 1 administration per day) for one month and performances on the rotarod evaluated. Treatment was then stopped and locomotor performances evaluated one month later.
(§2) Transgenic animals received intraperitoneal injections, either with a placebo (0.9% physiological serum) or with KN 93 (1.5 mg/kg). Treatment took place every day for one month.
(§3) Locomotor ability was tested using the rotarod procedure, requiring motor coordination and balance control. A machine manufactured by Bioseb was used for this purpose. A previously used procedure (Norreel et al., 2001) was adapted and two velocities (15 and 25) were used. Briefly, each mouse underwent the same 5-day procedure. The first two days were used to train the animals (five sessions of 2-min walking at a very low speed, i.e. five rotations per minute (r.p.m.)). The last three days were used to run the test sessions. Each day, the mice performed two series of five trials, a training speed with a 1-h rest period between the two series and a 5-min rest period between two consecutive trials. The software provided by Bioseb (Sedacom v1) was used to monitor the time the animals were on the rod.
(§4) Mouse from the G2 transgenic line have been treated either with a placebo (4 animals) or with soluble KN93 (4 animals). Locomotor performances of the animals have been evaluated using the rotarod test after one month of treatment. Performances of WT and G2 treated with KN93, are not statistically different. On the contrary performances of G2 animals treated either with a placebo or with KN93 are highly statistically significant (p value<0.0001). Treatment has been stopped for one month and rotarod performances evaluated. Rotarod performances of KN 93 treated or placebo treated degrade and are not statically different.

[5] = test system: S3 transgenic line (mutated human Cx32 S26L); experiment: Rotarod locomotor test, S3 transgenic line; format: in vivo, mouse
Description: as §2, §3
as §4, with “Mouse (4)” for “Mouse”, “S3” for “G2”, “placebo” for “placebo (4 animals)”, “KN93.” for “KN93 (4 animals).”, “statistically” for “statically”

Structure (SMILES)	Connexon activity at 0.1 μM (S3 cells)	Connexon activity at 1 μM (S3 cells)	Connexon activity at 10 μM (S3 cells)	Connexon activity at 50 μM (S3 cells)	>centro (percentage of cells with more than two centrosomes) (S3 fibroblasts [1]) [%]	2 centro (percentage of cells with two centrosomes) (S3 fibroblasts [1]) [%]	1 centro (percentage of cells with one centrosome) (S3 fibroblasts [1]) [%]	Effect on centrosome number per cell, in words (S3 fibroblasts [1])	other results
COc1ccc(S(=O)(=O)N(CCO)c2ccccc2CN(C)Cc2ccccc2)cc1 [CM08-33, N-(2-{[benzyl(methyl)amino]methyl}phenyl)-2-hydroxy-S′-(4-methoxyphenyl)ethane-1-sulfonamido]	162 thousands of arbitrary fluorescence units	196 thousands of arbitrary fluorescence units	189 thousands of arbitrary fluorescence units	180 thousands of arbitrary fluorescence units	–	–	–	–	–
COc1ccc(S(=O)(=O)Nc2ccccc2CN(C)C/C=C/c2ccc(Cl)cc2)cc1 [KN92]	–	–	–	–	20	20	60	unchanged	CamKII inhibitory activity, in words (CamKII): no CamKII inhibitory activity
COc1ccc(S(=O)(=O)N(CCO)c2ccccc2CN(C)C/C=C/c2ccc(Cl)cc2)cc1 [KN93]	–	–	–	–	7	20	73	returns to close to normal	Nuclear Volume (S3 fibroblasts [2]): 11000; Effect on nuclear (cellular) volume, in words (S3 fibroblasts [2]): restitution of normal cellular volume; Effect on connexon activity, in words (S3 fibroblasts [3]; S3 cells treated with KN93): significantly improved though not totally restored; LY intensity (S3 fibroblasts [3]; S3 fibroblasts, KN93 10 μM, fluorescence 2 hours after lucifer yellow, WT 63, untreated S3 17): 28 +/− 9 arbitrary units; Effect on progression of locomotor phenotype, in words ([4]; G2 animals, soluble form 1.5 mg/kg i.p. per day): significantly lowers the progression of the phenotype; Locomotor activity after treatment stopped, in words ([4]; G2 animals, treatment stopped after one month): rapid degradation of the locomotor activity ensued; Mean Minutes on rotarod, W4 treated ([4]; G2 line, 1.5 mg/kg i.p. per day for one month, T0 3.90, W4 placebo 3.20): 3.6 min; Mean Minutes on rotarod, W4 treated + 1 month arrest ([4]; G2 line, one month after stopping treatment, placebo + arrest 2.84): 2.9 min; Degradation of locomotor capacities, in words ([5]; S3 animals, soluble form 1.5 mg/kg i.p. per day): lowered; Locomotion after stopping the treatment, in words ([5]; S3 animals, treatment stopped): strong degradation of locomotion; Mean Minutes on rotarod, W4 treated ([5]; S3 line, 1.5 mg/kg i.p. per day for one month, T0 2.7, W4 placebo 2.1): 2.5 min; Mean Minutes on rotarod, W4 treated + 1 month arrest ([5]; S3 line, one month after stopping treatment, placebo + arrest 1.5): 1.41 min; Connexon activity, KN93 reference column (S3 cells; KN93 10 μM, 24 hours, WT 230, untreated S3 126-129): 191 thousands of arbitrary fluorescence units
COc1ccc(S(=O)(=O)N(CCO)c2ccccc2CN(C)C/C=C/c2ccccc2)cc1 [CM08-16, 2-hydroxy-S-(4-methoxyphenyl)-N′-[2-({methyl[(2E)-3-phenylprop-2-en-1-yl]amino}methyl)phenyl]ethane-1-sulfonamido]	131 thousands of arbitrary fluorescence units	142 thousands of arbitrary fluorescence units	159 thousands of arbitrary fluorescence units	160 thousands of arbitrary fluorescence units	–	–	–	–	–
COc1ccc(S(=O)(=O)N(CCO)c2ccccc2CN(C)Cc2ccc3ccccc3c2)cc1 [CM08-18, 2-hydroxy-S-(4-methoxyphenyl)-N′-(2-{[methyl(naphthalen-2-ylmethyl)amino]methyl}phenyl)ethane-1-sulfonamido]	125 thousands of arbitrary fluorescence units	150 thousands of arbitrary fluorescence units	162 thousands of arbitrary fluorescence units	174 thousands of arbitrary fluorescence units	–	–	–	–	–
COc1ccc(S(=O)(=O)N(CCO)c2ccccc2CN(C)CCCc2ccc(Cl)cc2)cc1 [CM08-40, N-[2-({[3-(4-chlorophenyl)propyl](methyl)amino}methyl)phenyl]-2-hydroxy-S′-(4-methoxyphenyl)ethane-1-sulfonamido]	169 thousands of arbitrary fluorescence units	169 thousands of arbitrary fluorescence units	167 thousands of arbitrary fluorescence units	162 thousands of arbitrary fluorescence units	–	–	–	–	–
CN([C@@H](Cc1ccc(OS(=O)(=O)c2cccc3cnccc23)cc1)C(=O)N1CCN(c2ccccc2)CC1)S(=O)(=O)c1cccc2cnccc12 [KN62, 1-[N,Obis(5-isoquinolinesulfonyl)-N-methyl-L-tyrosyl]-4-phenylpiperazine]	–	–	–	–	6	32	62	returns to close to normal	Nuclear Volume (S3 fibroblasts [2]): 10100; Effect on nuclear (cellular) volume, in words (S3 fibroblasts [2]): restitution of normal cellular volume
